Tests used:
[1] = tested on: HEL leukemic cells; assay: Western blot analysis in HEL leukemic cells (JAK2 V617F); type: cell-based, human; conditions: for concentration with about the same potency in hyperacetylation of tubulin-α: 24 h, Western blot
Experimental: Human leukemia cell line HEL with JAK2 V617F mutation (DSMZ Accession No: ACC-11).
(§1) The assay is carried out as described in Buchwald et al. 2010 and Buchwald et al. 2013. Briefly, cells were collected and lysed in NET-N buffer (150 mM NaCl, 1 mM EDTA, 50 mM Tris-HCl (pH 7.8), 0.5% Nonidet P-40 (NP-40), 1 mM phenylmethylsulfonyl fluoride, 0.5 mg/ml leupeptin and 0.5 mg/ml pepstatin) followed by mild sonification on ice. Protein lysate ([…]) was boiled in Laemmli buffer and separated on SDS-polyacrylamide gel electrophoresis for western blotting with specific antibodies. All lysates were assessed by Bradford assay for protein concentrations.

[2] = tested on: HCT-116 cells; assay: Western blot analysis in HCT-116 colon cancer cells; type: cell-based, human; conditions: HCT-116 cells, 24 h
Experimental: FIG. 5. Various cancer cells were treated for 24 h as shown and tested by Western blot analysis. […] Human colon cancer cell lines RKO (ATCC Accession No: CRL-2577) and HCT-116 (DSMZ Accession No: ACC-581). Western Blot Analysis a […] Protein lysate ([…]) was boiled in Laemmli buffer and separated on SDS-polyacrylamide gel electrophoresis for western blotting with specific antibodies. All lysates were assessed by Bradford assay for protein concentrations.

[3] = tested on: BV-173 cells; assay: Flow cytometric analysis of BV-173 cells, combination with imatinib; type: cell-based, human; conditions: BV-173, 1 μM MARB1 or 2 μM MARB2 combined with 0.2 or 0.5 μM imatinib, 48 h
Experimental: (§2) Flow cytometric analysis of the induction of (A) apoptotic DNA fragmentation and (B) Cell cycle analysis of BV 173 cells. The cells were kept as control cells (Ctl), treated with 1 μM or 2 μM MARB1 MARB2 and 0.2 or 0.5 μM imatinib for 48 h. The data was received by two independent experiments. The individual compounds show only slight effects in the used concentrations; whereas their combination can effectively kill leukemic cells. (C) Western blot analysis on data from the BCR-ABL, acetylated tubulin and α-sliced PARP1; the total amount of tubulin-α serves as a loading control. BV-173 cells were treated for 24 h with 1 μM, or 2 μM MARB1 or MARB2.
(§3) Human leukemia cell lines BV 173 and K562 with BCR-ABL mutation (Leibniz Institute DSMZ—German Collection of Microorganisms and Cell Cultures, DSMZ Accession Nos: ACC-20 and ACC-10).
The assay is carried out as described in Pietschmann et al., 2012 and Brandl et al. 2012. Briefly, 10^5 cells were fixed in 1 ml 70% EtOH with 0.05% Tween-20 overnight at 4° C. The following day, cells were washed with 3 ml 38 mM sodium citrate, pH 7.4, and incubated for 20 min at 37° C. in 0.5 ml 38 mM sodium citrate, pH 7.4, supplemented with 50 μg/ml propidium iodide and 10 μg/ml RNase-A. DNA contents of the cells were measured by fluorescence-activated cell sorter (FACS). […] Equally, the cell cycle profile can be assessed with this method.

[4] = tested on: 42 solid tumor cell lines; assay: In vitro activity against solid tumor cell lines, mean of all lines; type: cell-based; conditions: average IC50 value from all 42 measurements
[5] = tested on: PRXF DU-145; assay: In vitro activity against solid tumor cell lines (FACS analysis method a); type: cell-based; conditions: Homo sapiens, Prostate
Experimental: (§4) Human prostate cancer cell lines PRXF DU-145, PRXF LNCaP, PRXF PC-3M (Oncotest GmbH, Freiburg, Germany)
(§5) The assay is carried out as described in Pietschmann et al., 2012 and Brandl et al. 2012. Briefly, 10^5 cells were fixed in 1 ml 70% EtOH with 0.05% Tween-20 overnight at 4° C. The following day, cells were washed with 3 ml 38 mM sodium citrate, pH 7.4, and incubated for 20 min at 37° C. in 0.5 ml 38 mM sodium citrate, pH 7.4, supplemented with 50 μg/ml propidium iodide and 10 μg/ml RNase-A. DNA contents of the cells were measured by fluorescence-activated cell sorter (FACS). This method allows detection of the apoptotic subG1-fraction, which has a DNA content below 2n due to apoptotic cleavage of DNA. Equally, the cell cycle profile can be assessed with this method.
(§6) The novel HDAC6 inhibitors were tested in a panel of tumor cell lines for cytostatic/toxic activities (see Table 2).

[6] = tested on: PRXF PC-3M; assay: as above; type: cell-based; conditions: Homo sapiens, Prostate
Experimental: as §4, §5, §6

[7] = tested on: PRXF LNCaP; assay: as above; type: cell-based; conditions: Homo sapiens, Prostate
Experimental: as §4, §5, §6

[8] = tested on: BV-173 cells; assay: Western blot analysis in BV-173 cells; type: cell-based, human; conditions: for acetylation of histone H3: BV-173, 1 μM MARB1, 2 μM MARB2 or 2 mM VPA
Experimental: BV-173 cells (BCR-ABL positive leukemic cells) were used as control cells left (Ctl) or with 1 μM MARB1, 2 μM MARB2 or 2 mM VPA treated for 24 h. These concentrations were chosen to achieve equipotent effects on cells which was in preliminary tests (data not shown). Shown are acetylated tubulin-α, α-tubulin, acetylated histone H3, WT1, survivin and β-actin. The total amount of α-tubulin and β-actin were used as loading control. Mr, relative molecular weight in kilodaltons. The degradation of WT1 in patients treated with VPA cells bases on a loss of WT1 mRNA and the increased degradation of WT1 protein by induction of the E2 ubiquitin conjugase UbcH8.
as §2, §3, §1

[9] = tested on: UXF 1138; assay: In vitro activity against solid tumor cell lines (FACS analysis method a); type: cell-based; conditions: Homo sapiens, Uterus
Experimental: Human uterus cancer cell line UXF 1138 (Oncotest GmbH, Freiburg, Germany)
as §5, §6

[10] = tested on: RKO cells; assay: Western blot analysis in RKO colorectal cancer cells; type: cell-based, human
Experimental: FIG. 5. Various cancer cells were treated for 24 h as shown and tested by Western blot analysis.
(D) Inhibition of HDAC6 protects it from degradation by the addition of a pro-apoptotic agent (staurosporine, ST).
The total amount of vinculin serves as a loading control; Proof of tubulin acetylation serves as proof of the treatment accuracy. The loss of the caspase-3 corresponds to the induction of apoptosis (programmed cell death).
Human colon cancer cell lines RKO (ATCC Accession No: CRL-2577) and HCT-116 (DSMZ Accession No: ACC-581).
as §1

[11] = tested on: MAXF 401; assay: In vitro activity against solid tumor cell lines (FACS analysis method a); type: cell-based; conditions: Homo sapiens, MAXF401, Breast
Experimental: (§7) Human breast cancer cell lines MAXF 401 and MAXF MCF-7 (Oncotest GmbH, Freiburg, Germany)
as §5, §6

[12] = tested on: MAXF MCF-7; assay: as above; type: cell-based; conditions: Homo sapiens, MCF7, Breast
Experimental: as §7, §5, §6

[13] = BV-173, 1 μM MARB1, 2 μM MARB2, 24 h

## Cc1[nH]c2ccccc2c1CCNCc1ccc(/C=C/C(=O)NO)cc1 [LBH589, reference compound]
[1]; compared to other inhibitors
  acetylation of tubulin-α: decreased acetylation of tubulin-α
[2]
  tubulin acetylation and degradation: degradation of tubulin

## CN1CC(=O)N2Cc3c(c4ccccc4n3Cc3ccc(C(=O)NO)cc3)C(C2)C1=O (stereo not drawn) [MARB2, N-Hydroxy-4-((5-methyl-3,6-dioxo-4,5,6,7-tetrahydro-1H-2,7-methano[1,4]diazonino[6,7-b]indol-12(3H)-yl)methyl)benzamide]
[3]
  apoptotic and necrotic sub-G1 populations: significantly increases
[1]
  concentration with about the same potency in hyperacetylation of tubulin-α: ~2 µM
[4]
  IC50: 16.4 µM
[5]
  IC50: 10.3 µM
[6]
  IC50: 20.8 µM
[7]
  IC50: 4.8 µM
[8]; [13]
  acetylation of tubulin-α: hyperacetylation of tubulin-α
  expression of survivin: reduction of the expression of survivin
[8]; 24 h
  acetylation of histone H3: Neither MARB1, nor MARB2 cause these alterations
[8]; BV-173, compound alone, 24 h
  BCR-ABL expression on the protein level: do not affect
[8]; BV-173, with imatinib, 24 h
  BCR-ABL stabilization/degradation in combination with imatinib: significantly inhibit the unwanted stabilization of BCR-ABL
[9]
  IC50: 5.49 µM
[2]
  tubulin acetylation and degradation: starts the hyperacetylation of tubulin in colon carcinoma cells (RKO and HCT-116 cells) without destroying it
[10]; 0.5 μM, 24 h
  hyperacetylation of tubulin: sufficient to induce hyperacetylation of tubulin
[10]; with staurosporine
  HDAC6 loss in staurosporin (ST)-treated cells: protects ST-treated RKO cells
[11]
  IC50: 13.7 µM
[12]
  IC50: 7.69 µM

## CCCC(CCC)C(=O)O [VPA, reference compound]
[8]; 24 h
  acetylation of histone H3: induces hyperacetylation of histone H3

## CN1CCc2c(c3ccccc3n2Cc2ccc(C(=O)NO)cc2)C1 [tubastatin A, reference compound]
[1]
  concentration with about the same potency in hyperacetylation of tubulin-α: ~5 µM
